Laboratory results reported in US20230076415A1, “METHODS AND COMPOSITIONS FOR TREATING MELANOMA” (INSERM (INSTITUT NATIONAL DE LA SANTÉ ET DE LA RECHERCHE …, priority 2020, published 2023).

Key:
A375 cells [1] = test: Survival analysis (crystal violet staining) of A375 cells treated with 8TQ; assay type: cell-based; conditions: Homo sapiens, A-375, increasing doses of 8TQ, 72h, read-out: calculated IC50 for 8TQ
Protocol: (§1) FIG. 3. Pharmacological inhibition of PSMD14 impairs melanoma cell survival. A) Survival analysis performed on A375 cells treated with vehicle or increasing doses of 8TQ (0.27, 0.9, 3 μM). After 72h, cells were stained with crystal violet. Right, cell viability was quantified on lysates by analyzing crystal violet staining at 595 nm. Histograms represent the mean±SD of three independent experiments in duplicate (***P<0.001; ns, non significant). B) Effect of PSMD14 inhibition on melanoma cell viability. A375 cells were treated with vehicle or increasing doses of 8TQ (0.27, 0.9, 3 μM). After 72h, cells were stained with Annexin V-FITC and DAPI and analysed by flow cytometry. Histograms show the percentage of cell death (Annexin V and DAPI positive cells) (mean±SEM, n=3). The calculated mean IC50±sem is shown. (** P<0.005, ***P<0.001). C) A subset of melanoma cells was treated with increasing doses of 8TQ. After 72h, cells were labeled and analyzed as in b). The corresponding IC50 of 8TQ was determined by measuring cell viability. Box plots indicating the upper/lower quartile and the median with whiskers from min to max values from 2 experiments performed in triplicate.
After treatment, cells were fixed in PFA 3% during 20 min, washed with PBS and stained with crystal violet 0.4% in ethanol 20% for 30 min. After washing, crystal violet was solubilized from fixed cells. […]

A375 cells [2] = test: Cell death by Annexin V-FITC/DAPI flow cytometry; assay type: cell-based, human; conditions: 8TQ 0.27, 0.9, 3 μM, 72h
Protocol: FIG. 2. PSMD14 depletion has a potent cytotoxic effect on melanoma cells. A) Experimental validation of the siDUB screening on melanoma cell proliferation. 501Mel and A375 melanoma cells were plated 10,000 cells/well in a 24-well plate and transfected with a control siRNA (siCTRL) or 3 different siRNA sequences targeting PSMD14 (siPSMD14 #1, #2 and #3). Cell confluence was imaged for 48 h using the IncuCyte Zoom live imaging system. Curves represent normalized cell proliferation of each siRNA relative to siCTRL. Data are the mean±SEM (n=3). ***P<0.001, 2-way ANOVA analysis. B) Colony survival analysis after PSMD14 depletion (siPSMD14 #1, #2 and #3) compared to control siRNA (siCTRL). 501Mel and A375 cells were transfected with siRNAs, re-seeded at 2,000 cells/well and grown for 1 week. Colonies were stained with crystal violet. […] Box plots show the mean±SEM of crystal violet quantification relative to siCTRL (n=3, ***P<0.001.). […] After 72h, cells were labeled with Annexin V-FITC and DAPI and analysed by flow cytometry. […]
FIG. 3. […] Right, cell viability was quantified on lysates by analyzing crystal violet staining at 595 nm. […] After 72h, cells were stained with Annexin V-FITC and DAPI and analysed by flow cytometry. […] The calculated mean IC50±sem is shown. […] After 72h, cells were labeled and analyzed as in b). The corresponding IC50 of 8TQ was determined by measuring cell viability. […]

[3] = tested on: human (M099, M029, Sbcl2, 501Mel, WM9 and MEWO) and murine (Yumm1.7 and MaNras) melanoma cell lines; test: IC50 of 8TQ on a collection of melanoma cell lines and short-term cultures; assay type: cell-based
Protocol: as §1, with “Box plots indicating the upper/lower quartile and the median with whiskers from min to max values from 2 experiments performed in triplicate.” left out
(§2) After 24 to 48h of treatment, cell viability was evaluated by flow cytometry following staining with Annexin-V-FITC and propidium iodide (PI) (ThermoFisher Scientific) as previously described (27). The percentage of dead cells (Annexin-V-FITC+ and PI+ cells) was then determined. […]

A375 cells [4] = test: Western blot analysis of A375 cells; assay type: cell-based, human; conditions: data not shown
Description: Culture reagents and DAPI were purchased from Thermo Fischer Scientific. Vemurafenib (PLX4032) and Trametinib (GSK1120212) were from Selleckchem. Chemicals, cycloheximide (CHX), 8TQ and puromycin were from Merck Millipore. The antibodies used for western blotting were as follow: PSMD14 (Generon), HSP90, p53 (Santa Cruz Biotechnology), K48-linkage specific polyubiquitin (D9D5), p21, CDK2, PARP, cleaved caspase 3, phospho-Thr202/Tyr204 Erk1/2 (Cell Signaling Technology), phospho-Ser139 H2AX (BioLegend). Alexa Fluor TexasRed-conjugated secondary antibodies were from ThermoFisher Scientific.

[5] = tested on: Yumm1.7 murine melanoma cells (BrafV600E/Pten null/cdkn2a null); test: Yumm1.7 syngeneic melanoma model; assay type: in vivo, C57Bl/6J mice
Protocol: (§3) FIG. 4. The PSMD14 inhibitor 8TQ inhibits tumor growth in melanoma syngeneic models. A) 2×10^5 murine melanoma cells Yumm1.7 (derived from BrafV600E/Pten null/cdkn2a null mice) were subcutaneously inoculated into both flanks of 6-week old C57Bl/6J female mice. After one week, mice were injected i.p 3 times per week with 8TQ (10 mg/kg) or vehicle. The tumor size was measured with a caliper and the tumor volume was determined. Data shown are mean±SD of tumor volume (n=12; ***, ***P<0.001, 2way ANOVA). B) 4×105 murine melanoma MaNRas (NRasQ61K) were subcutaneously injected into both flanks of 6-week old C57Bl/6J female mice. After two weeks, mice were injected i.p every two days with 8TQ (10 mg/kg) or vehicle. The tumor size was measured with a caliper and the tumor volume was determined. Data shown are mean±sd of tumor volume (n=12; ***, ***P<0.001, 2way ANOVA).
Slices (4 μm) from paraffin-embedded tumors sections were Tissue sections were processed for dewaxing, rehydration and antigenic heat unmasking using the PT Module Lab Vision™ (ThermoFisher Scientific) according to the manufacturer's instructions. Tissue sections were then labelled with primary antibodies diluted in 1% BSA (wt/vol) followed by standard avidin-biotin-peroxidase staining (Vector Laboratories) using the automated staining system Myreva SS30 (Microm Microtech, France). Primary antibodies were as follows: phospho-H2AX (Merck Millipore), Ki67 (Agilent Dako), cleaved caspase 3 (Cell Signaling Technology).
All mouse experiments were carried out in accordance with the Institutional Animal Care and the local ethics committee (CIEPAL-Azur agreement NCE/2018-509). The animals were maintained on a 12h light/dark cycle in a temperature-controlled facility at 22° C. and were provided with free access to food (standard laboratory chow diet from UAR). For melanoma xenografts, 2×106 BRAF inhibitor resistant A375Riv human melanoma cells were subcutaneously implanted into both flanks of 6 week old athymic nude nu/nu female mice (Envigo). For melanoma syngeneic models, 2 to 4 105 of Yumm1.7 or MaNras murine melanoma cells were subcutaneously inoculated into 6 week old C57Bl/6J female mice (Envigo). When tumors became palpable (0.05 to 0.1 cm3), mice were injected intraperitoneally once every other day with vehicle or 10 mgkg-1 8TQ in a 90:9:1 (v/v/v) mixture of Labrafil, dimethylacetamide, and Tween 80. The tumor size was measured with a caliper and the tumor volume was determined using the formula: Volume=(length×Width2)/2. At the end of the experiment, mice were sacrificed and tumors dissected, weighed, fixed and embedded in paraffin for IHC analysis.

[6] = tested on: MaNRas murine melanoma cells (NRasQ61K); test: MaNRas syngeneic melanoma model; assay type: in vivo; conditions: 8TQ 10 mg/kg i.p. vs vehicle, C57Bl/6J mice
Protocol: as §3
All mouse experiments were carried out in accordance with the Institutional Animal Care and the local ethics committee (CIEPAL-Azur agreement NCE/2018-509). The animals were maintained on a 12h light/dark cycle in a temperature-controlled facility at 22° C. and were provided with free access to food (standard laboratory chow diet from UAR). […] The tumor size was measured with a caliper and the tumor volume was determined using the formula: Volume=(length×Width2)/2. […]

[7] = tested on: A375RIV, M229R, M238R, M249R and A375DDR melanoma cells; test: Viability of BRAFi- and BRAFi/MEKi-resistant melanoma cells treated with 8TQ; assay type: cell-based, human
Protocol: (§4) FIG. 5. Targeting PSMD14 overcomes resistance to MAPK pathway inhibition. A) Melanoma cell lines resistant to BRAFi (A375RIV, M229R, M238R and M249R) or double resistant to BRAFi and MEKi (A375DDR) were transfected with siCTRL or siPSMD14 #1. After 72h, cell colonies were stained with crystal violet and the absorbance at 595 nm was measured. Box plots show the upper/lower quartile and the median with whiskers from min to max values (n=3, ***P<0.001). B) The above panel of melanoma cells was treated with increasing doses of 8TQ. After 72h, cells were labeled and analyzed. The corresponding IC50 of 8TQ was determined. Box plots indicate the upper/lower quartile and the median with whiskers from min to max values from 2 experiments performed in triplicate. C) 1×10^6 A375Riv human melanoma cells were implanted into both flanks of nude mice. After 2 days, mice were injected i.p every day with 8TQ (10 mg/kg) or vehicle. The tumor size was measured with a caliper and the tumor volume was determined. Data shown are mean±SD of tumor volume (n=12; ***, ***P<0.001, 2way ANOVA).
as §2

[8] = tested on: A375Riv human melanoma cells; test: BRAFi-resistant A375Riv xenografts; assay type: in vivo; conditions: A375Riv xenografts in nude mice, 8TQ 10 mg/kg i.p. vs vehicle
Protocol: as §4
All mouse experiments were carried out in accordance with the Institutional Animal Care and the local ethics committee (CIEPAL-Azur agreement NCE/2018-509). […] The tumor size was measured with a caliper and the tumor volume was determined using the formula: Volume=(length×Width2)/2. […]

[9] = tested on: 501Mel and A375 melanoma cells; test: Phosphorylated H2AX after 8TQ; assay type: cell-based, human; conditions: increased doses of 8TQ, 48h, data not shown
Protocol: For phospho-H2AX (pH2AX) foci staining, cells grown on coverslips or culture dishes were fixed with 4% paraformaldehyde and permeabilized in 50 mM Tris-HCl, pH 7.4, 150 mM NaCl, 0.3% Triton X-100 for 1 h at 4° C. Cells were then blocked in 50 mM Tris-HCl, pH 7.4, 150 mM NaCl, 0.03% Triton X-100, 1% BSA for 1 h at 37° C., and stained with anti-phospho-Ser139 H2AX (1:1000, Merck Millipore #05-636) at 4° C. overnight. After extensive washings, cells were stained with Alexa Fluor TexasRed-conjugated secondary antibodies and 10 μg/ml DAPI for 1 h at room temperature. After washing, cells were mounted with ProLong Gold Antifade Mounting Oil (Thermo Fischer Scientific). The percentage of cells positive for phospho-H2AX foci was determined by analyzing 200 randomly chosen cells and the foci-positive cells were defined as nuclei with at least one large focus or a granular pattern of fluorescence.

[10] = Yumm1.7 tumors, vs vehicle, data not shown
[11] = immunostaining on tumor sections, data not shown

## Sc1cccc2cccnc12 [8TQ, quinoline-8-thiol]
A375 cells [1]
  IC50: 660 nM
A375 cells [2]
  apoptotic cell death (Annexin V-FITC/DAPI staining): dose-dependent increase
[3]; collection of human and murine melanoma cell lines and short-term cultures, 72h
  IC50: 250 to 750 nM
[3]; irrespective of the mutational status or the disease stage
  melanoma cell viability: markedly inhibited
A375 cells [4]
  accumulation of poly-ubiquitinated proteins: induced the accumulation
  expression of cleaved PARP: induced
  expression of cleaved caspase-3: induced
[5]; 8TQ 10 mg/kg i.p. vs vehicle, C57Bl/6J mice
  Yumm1.7 tumor growth: significantly decreased
[5]; [10]
  tumor size at the experiment endpoint: markedly reduced
  tumor weight at the experiment endpoint: markedly reduced
[5]; [11]
  staining of the apoptosis marker cleaved caspase 3: increased staining
  staining of the cell proliferation marker Ki67: decreased staining
[6]
  MaNRAS tumor growth: significantly decreased
[7]; doses of 8TQ, 72h
  viability of BRAFi- and BRAFi/MEKi-resistant cells: potently decreased
[7]; resistant cells compared with parental counterparts
  IC50 of 8TQ: in the same μM range
[8]
  tumor development: dramatically abrogated
[9]
  expression of phosphorylated H2AX: elevated expression
